Reference: PMC11249953, “c-KIT inhibitors reduce pathology and improve behavior in the Tg(SwDI) model of Alzheimer’s disease” (Life Science Alliance, 2024)
Values joined by “and” are separate entries in the source; they are usually repeats but may differ in a detail not shown here. Equal values may be shown once.

Key:
MTOR = target: T1, MTOR (Homo sapiens, UniProt P42345); assay: KINOMEscan competition binding, MTOR; details: 10 µM compound; for remaining binding at 10 µM: lower = stronger binding, read-out: MTOR %Ctrl @ 10000nM (POC)
T1 construct: DNA label for qPCR read-out (T7 phage fusion or DNA tag); purchased Eurofins DiscoverX Corporation; host or cells: T7 phage in E. coli (BL21-derived) or HEK-293
Method: The KINOMEscan screening platform (Eurofins DiscoverX Corporation) was performed using active site-directed competition binding assay to quantitatively measure interactions between BK40143 and BK40197 and more than 450 human kinases and disease relevant mutant variants. […] Screening “hits” are identified by measuring the amount of kinase captured in test (BK40143 and BK40197) versus control samples by using a quantitative and ultra-sensitive qRT-PCR method that detects the associated DNA label. BK40143 and BK40197 were screened at 10 µM concentration, and results for primary screen binding interactions were reported as “% Ctrl” (POC), where lower numbers indicate stronger hits and calculated as follows: [test compound signal−positive control signal/negative control signal−positive control signal]×100
negative control = DMSO (100% Ctrl)
positive control = control compound (0% Ctrl)
Based on screening data from of profiled compounds, a proportional relationship between primary screening results and corresponding compound/target affinities can be described as binding constants (Kd values) for the indicated ranges of POC values with tighter binding (higher affinity) interactions associated with lower POC values and weaker binding (lower affinity) associated with higher POC values. Briefly, kinase-tagged T7 phage strains were grown in parallel in 24-well blocks in an E. coli host derived from the BL21 strain. E. coli were grown to log-phase and infected with T7 phage from a frozen stock (multiplicity of infection = 0.4) and incubated with shaking at 32°C until lysis (90–150 min). The lysates were centrifuged (6,000g) and filtered (0.2 μm) to remove cell debris. The remaining kinases were produced in HEK-293 cells and subsequently tagged with DNA for qRT-PCR detection. Streptavidin-coated magnetic beads were treated with biotinylated small molecule ligands for 30 min at RT to generate affinity resins for kinase assays. The liganded beads were blocked with excess biotin and washed with blocking buffer (1% BSA, 0.05% Tween 20, 1 mM DTT; SeaBlock [Pierce]) to remove unbound ligand and to reduce non-specific phage binding. Binding reactions were assembled by combining kinases, liganded affinity beads, and test compounds in 1x binding buffer (20% 0.17x PBS, 0.05% Tween 20, 6 mM DTT; SeaBlock). Test compounds were prepared as 100x stocks in 100% DMSO and directly diluted into the assay. All reactions were performed in polypropylene 384-well plates in a final volume of 0.02 ml. The assay plates were incubated at RT with shaking for 1 h and the affinity beads were washed with wash buffer (1x PBS, 0.05% Tween 20). […] The kinase concentration in the eluates was measured by qRT-PCR.

mice = assay: Novel object recognition, source data sheet NOR (mouse line not given); format: in vivo; set-up: key to Probe: DI (Discrimination Index: Novel / Total) / Familiarization: DI / Familiarization: DI, group mean / Familiarization DI: DI = novel-object exploration time / total exploration time of both objects; Familiarization: Total / Familiarization B / Familiarization Total: unit not given here; details: for Familiarization: A (exploration of object A) / Familiarization: B (exploration of object B) / Familiarization: DI / Familiarization: Total / Probe: DI (Discrimination Index: Novel / Total) / Probe: Familiar / Probe: Novel / Probe: Total: individual mice; for Probe DI: Discrimination Index: Novel / Total; for Probe DI / Familiarization Total / Familiarization B / Familiarization DI / Probe Familiar / Probe Total / Probe Novel / % Difference: one value per mouse; for Familiarization Total / Familiarization B / Familiarization DI / Probe Familiar / Probe Total / Probe Novel: novel object recognition; for Familiarization Total: A + B; for Familiarization B: object B; for Probe Familiar: familiar object; for Probe Total: novel + familiar; for Probe Novel: novel object; for % Difference: probe DI minus familiarization DI, Exclude trials where mice explored <1s
Method: (§1) Novel object recognition was carried out using a 50 × 50 cm arena with clear walls covered by brown construction paper. Mice were habituated to the room for 30 min each day, before being allowed to freely explore the arena for 5 min two times, for 3 d. On the 4th d, two identical objects were placed in the arena in opposite adjacent corners, 10 cm from the corner of the arena. Mice were placed along the wall opposite from the objects and allowed to freely explore for 10 min. Approach behavior (extending nose toward the object) toward both objects was recorded manually using handheld stop watches and compared with ensure there was no preference for either neutral object. For the probe trial, one object was removed and replaced with a novel object, and mice were again allowed to freely explore for 10 min, with approach time towards the novel and familiar objects recorded. Trials in which the mice explored for less than 1 s were excluded. Discrimination index was calculated by dividing time spent exploring the novel object by total time exploring both objects and was compared for treated versus control animals.

WT mice (C57BL/6) = assay: Drug tolerability assessment (multiple ascending dose); format: in vivo; details: for maximum tolerable dose: IP daily, multiple ascending dose, WT mice; for therapeutic safe dose in animals: both, C57BL/6, mouse
Method: 3–4-mo-old WT mice (male and female, C57BL/6) were IP injected with starting doses of 10 mg/kg of BK40143 or BK40197 daily for 5 d before a 2-d washout period. […] BK40197 dosage was increased in 10 mg/kg increments for 5 d each until the maximum tolerable dose of 50 mg/kg was reached. All animal work was approved by GUACUC.

TgAPP mice = assay: Novel object recognition, TgAPP mice; format: in vivo, mouse; details: BK40143 5 mg/kg, BK40197 45 mg/kg IP, 6 wk, vs DMSO
Method: as §1

[1] = tested on: SH-SY5Y neuroblastoma cells transfected with α-synuclein; assay: In vitro autophagy assay (Abcam kit, flow cytometry); format: cell-based, human; details: 10 μM, vs DMSO
Method: To establish that treatment with BK40143 and BK40197 induces autophagy, human SH-SY5Y neuroblastoma cells were transfected with an α-synuclein plasmid before being treated with rapamycin/chloroquine as a positive control, DMSO as a negative control, or an ascending dose ([…]) of either BK40143 or BK40197 for 8 h. Cells were then harvested and treated using the Abcam Autophagy Assay kit, which uses a cationic amphiphilic tracer to stain autophagic vacuoles, before analysis via flow cytometry.
Human SH-SY5Y neuroblastoma cells were grown and cultured in F12 media with 10% fetal bovine serum, 1% L-glutamine, and 1% pen/strep at normal atmospheric conditions (37°C, 21% O2, 5% CO2). Upon reaching 50–70% confluence, cells were transduced with a lentivirus containing an alpha-synuclein plasmid and allowed to grow for 8 h. Cells were then treated with an ascending dose (100 nM–10 μM) of BK40143 or BK40197, or DMSO or rapamycin/chloroquine overnight before being harvested and treated with the Abcam Autophagy Assay kit (cat. #ab139484) according to manufacturer’s protocols. Cells were then resuspended in cell staining buffer before being analyzed on a Becton Dickinson LSRFortessas flow cytometer.

Question: Which results are given for Cc1cccc(-c2cc3nccc(Nc4ccccc4)c3s2)c1 [BK40143]?
Answer: inhibition at 10 µM (MTOR): 0%; remaining binding at 10 µM (MTOR): 100%; Familiarization: DI, group mean (mice; 2.5mg/kg): 0.4194; Probe: DI, group mean (mice; 2.5mg/kg): 0.6322; Familiarization: A (exploration of object A) (mice; 2.5mg/kg, listed as 143): 79.74 and 23.94 and 6.51 and 4.1 and 1.73 and 91.39 and 3.94; Familiarization: B (exploration of object B) (mice; 2.5mg/kg, listed as 143): 36.19 and 20.07 and 19.62 and 23.82 and 2.46 and 58.89 and 9.8; Familiarization: DI (mice; 2.5mg/kg, listed as 143): 0.6878 and 0.544 and 0.2491 and 0.1468 and 0.4129 and 0.6081 and 0.2868; Familiarization: Total (mice; 2.5mg/kg, listed as 143): 115.93 and 44.01 and 26.13 and 27.92 and 4.19 and 150.28 and 13.74; Probe: DI (Discrimination Index: Novel / Total) (mice; 2.5mg/kg, listed as 143): 0.6527 and 0.5219 and 0.7012 and 0.6866 and 0 and 0.6684 and 0.5624; Probe: Familiar (mice; 2.5mg/kg, listed as 143): 12.56 and 26.64 and 26.04 and 10.96 and 0.71 and 19.02 and 21.52; Probe: Novel (mice; 2.5mg/kg, listed as 143): 23.6 and 29.08 and 61.12 and 24.01 and 0 and 38.34 and 27.66; Probe: Total (mice; 2.5mg/kg, listed as 143): 36.16 and 55.72 and 87.16 and 34.97 and 0.71 and 57.36 and 49.18; Familiarization: DI, group mean (mice; 5.0mg/kg): 0.4517; Probe: DI, group mean (mice; 5.0mg/kg): 0.5431; Familiarization: A (exploration of object A) (mice; 5.0mg/kg, listed as 143): 6.57 and 57.74 and 55.12 and 0 and 31.22 and 2.26 and 24.68 and 3.81; Familiarization: B (exploration of object B) (mice; 5.0mg/kg, listed as 143): 6.09 and 45.42 and 59.49 and 0 and 28.62 and 34.43 and 1.4 and 35.06 and 3.14; Familiarization: DI (mice; 5.0mg/kg, listed as 143): 0.519 and 0.5597 and 0.4809 and 0 and 0.4756 and 0.6175 and 0.4131 and 0.5482; Familiarization: Total (mice; 5.0mg/kg, listed as 143): 12.66 and 103.16 and 114.61 and 0 and 28.62 and 65.65 and 3.66 and 59.74 and 6.95; Probe: DI (Discrimination Index: Novel / Total) (mice; 5.0mg/kg, listed as 143): 0.5491 and 0.4762 and 0.6019 and 0.4523 and 0.4543 and 0.6392 and 0.6671 and 0.5538 and 0.5229 and 0.5147; Probe: Familiar (mice; 5.0mg/kg, listed as 143): 31.58 and 54.9 and 31.99 and 22.78 and 6.63 and 10.02 and 2.44 and 2.49 and 12.81 and 27.34; Probe: Novel (mice; 5.0mg/kg, listed as 143): 38.46 and 49.91 and 48.36 and 18.81 and 5.52 and 17.75 and 4.89 and 3.09 and 14.04 and 29; Probe: Total (mice; 5.0mg/kg, listed as 143): 70.04 and 104.81 and 80.35 and 41.59 and 12.15 and 27.77 and 7.33 and 5.58 and 26.85 and 56.34; Probe DI (mice; listed as 143): 0.8287 and 0.6842 and 0.7687 and 1 and 0 and 0.615 and 0.4318 and 0.5747 and 0.1499 and 0.6797; Familiarization Total (mice; listed as 143): 4.02 and 1.72 and 5.39 and 2.97 and 7.23 and 16.69 and 3.49 and 11.99 and 18.68 and 5.99; Familiarization B (mice; listed as 143): 4.02 and 0.91 and 0.51 and 1.41 and 5.2 and 7.29 and 2.89 and 7.23 and 11.16 and 3.62; Familiarization DI (mice; listed as 143): 0 and 0.4709 and 0.9054 and 0.5253 and 0.2808 and 0.5632 and 0.1719 and 0.397 and 0.4026 and 0.3957; Probe Familiar (mice; listed as 143): 0.62 and 0.78 and 0.31 and 0 and 0.83 and 2.41 and 0.5 and 20.09 and 39.82 and 2.04; Probe Total (mice; listed as 143): 3.62 and 2.47 and 1.34 and 5.82 and 0.83 and 6.26 and 0.88 and 47.24 and 46.84 and 6.37; Probe Novel (mice; listed as 143): 3 and 1.69 and 1.03 and 5.82 and 0 and 3.85 and 0.38 and 27.15 and 7.02 and 4.33; % Difference (mice; listed as 143): 82.8729% and 21.328% and -13.6724% and 47.4747% and 5.18% and 17.7727% and 28.4089%; maximum tolerable dose (WT mice (C57BL/6)): 7.5 mg/kg; therapeutic safe dose in animals (WT mice (C57BL/6); in vivo): up to 7.5 mg/kg; tolerability at starting dose (WT mice (C57BL/6); mouse, in vivo): rodent mortality; novel object recognition: time exploring the novel object (TgAPP mice): spent significantly greater amounts of time exploring the novel object; labelled cells (autophagic vacuoles), induction of autophagy [1]: significant increases in labelled cells

Question: How did the inhibition at 10 µM (MTOR) turn out when Cc1cccc(-c2cc3nccc(N4CCOCC4)c3s2)c1 [BK40197] was run?
Answer: 90.7%

Question: And the remaining binding at 10 µM (MTOR)?
Answer: 9.3%

Question: What about the “Probe DI” value (mice; listed as 197) of the same compound?
Answer: 0.7189 and 0.4276 and 0.6036 and 0 and 0.3497 and 0.7629 and 0.5645

Question: What about the “Familiarization Total” value (mice; listed as 197) of the same compound?
Answer: 6.07 and 3.17 and 0.72 and 1.59 and 2.09 and 99.73 and 4.98 and 1.54 and 46.43

Question: What about the “Familiarization B” value (mice; listed as 197) of the same compound?
Answer: 4.54 and 2.11 and 0 and 0.44 and 2.09 and 67.09 and 3.73 and 0.91 and 31.96

Question: What about the “Familiarization DI” value (mice; listed as 197) of the same compound?
Answer: 0.2521 and 0.3344 and 1 and 0.7233 and 0 and 0.3273 and 0.251 and 0.4091 and 0.3117

Question: What about the “Probe Familiar” value (mice; listed as 197) of the same compound?
Answer: 3.8 and 3.44 and 1.78 and 0.31 and 0 and 59.03 and 0.92 and 1.62

Question: What about the “Probe Total” value (mice; listed as 197) of the same compound?
Answer: 13.52 and 6.01 and 4.49 and 0.31 and 0 and 90.78 and 3.88 and 3.72

Question: What about the “Probe Novel” value (mice; listed as 197) of the same compound?
Answer: 9.72 and 2.57 and 2.71 and 0 and 31.75 and 2.96 and 2.1

Question: What about the “% Difference” value (mice; listed as 197) of the same compound?
Answer: 46.6876% and 9.324% and -39.6437% and 2.2463% and 51.1883% and 15.5425%

Question: And the maximum tolerable dose (WT mice (C57BL/6))?
Answer: 45 mg/kg

Question: What about the “therapeutic safe dose in animals” value (WT mice (C57BL/6); in vivo) of the same compound?
Answer: ≤ 45 mg/kg

Question: What about the “novel object recognition: time exploring the novel object” value (TgAPP mice) of the same compound?
Answer: spent significantly greater amounts of time exploring the novel object

Question: And the “labelled cells (autophagic vacuoles), induction of autophagy” value [1]?
Answer: significant increases in labelled cells
